# From ChEMBL document CHEMBL1149747, “Diterpene metabolites from two chemotypes of the marine sponge Myrmekioderma styx” (J Nat Prod, 1992)
# Legend:
# P388 = experiment: Cytotoxicity against mouse P388 cells; format: functional, cell-based
# A549 = experiment: Cytotoxicity against human A549 cells; format: functional, cell-based
SMILES,IC50 (P388),IC50 (A549)
C=CC(C)(O)/C=C/C=C(\C)CC/C=C(\C)CC(=O)C=C(C)C (stereo unspecified) [STYXENOL A],5 µg/mL,6.1 µg/mL
CC1=CC[C@@]2(C)CC[C@@]3(C)[C@H](O)C=C(C(C)C)[C@H]3C2CC1 (stereo partly specified),11.2 µg/mL,4 µg/mL
CC(=O)O[C@@H]1C[C@]2(C)C[C@@H]3O[C@]3(C)CCC2[C@@H]2C(C(C)C)=CC[C@]12C (stereo partly specified),5.6 µg/mL,7 µg/mL
